Laboratory results: patent publication US5541161A, “Stabilized sulfonate, sulfate, phosphonate and phosphate derivatives of hirudin” (Merrell Pharmaceuticals Inc., priority 1993, dated 1996)
Like-named read-outs stand apart in the source and are kept apart here. Numbered stars: 1 amine (or outer) side, 2 acyl side, 3 side chain; on linkers, the order of the positions; unused ones are H or OH. Suc = O=C(CCC(=O)[*:2])[*:1]; Pnh(SO3) = not defined here

Molecular target: thrombin (Homo sapiens, UniProt P00734)
Experiment: Fibrin-Clot Assay
Type: biochemical
[1] = read-out: IC50 Fibrin-Clot Assay
[2] = read-out: IC50 Fibrin-Clot Assay (class symbol)

`CC[C@H](C)[C@H](NC(=O)[C@@H]1CCCN1C(=O)[C@H](COS(=O)(=O)O)NC(=O)[C@H](Cc1ccc(O)cc1)NC(=O)CCC(=O)O)C(=O)N1CCC[C@H]1C(=O)N[C@@H](COS(=O)(=O)O)C(=O)N[C@@H](COS(=O)(=O)O)C(=O)N[C@@H](C)C(=O)N[C@@H](CC1CCCCC1)C(=O)N[C@@H](COS(=O)(=O)O)C(=O)O` [Example 8, Suc-Tyr-Ser(SO3 H)-Pro-Ile-Pro-Ser(SO3 H)-Ser(SO3 H)-Ala-Cha-Ser(SO3 H)-OH] was tested, and the IC50 [1] was 0.21 µM and the IC50 [2] was less than 5 µM.
“Suc-Tyr-Pro-Ile-Pro-Glu-Glu-Ala-Pnh(SO3)-D-Glu-OH (Suc-YPIPEEA-{Pnh(SO3)-dE-OH}; reading uncertain; also: printed as Suc-Tyr-Pro-Ile-Pro-Glu-Glu-Ala-Pnh(SO3)-D-Glu-OH) [Example 1]” gave an IC50 [1] of 2.5 µM and an IC50 [2] of less than 5 µM.
“Suc-Tyr(SO3 H)-Glu-Pro-Ile-Pro-Glu-Glu-Ala-Cha-D-Glu-OH [Example 5]” showed an IC50 [1] of 1.7 µM and an IC50 [2] of less than 5 µM.
Compound `CC[C@H](C)[C@H](NC(=O)[C@@H]1CCCN1C(=O)[C@H](CCC(=O)O)NC(=O)[C@H](Cc1ccc(NS(=O)(=O)O)cc1)NC(=O)CCC(=O)O)C(=O)N1CCC[C@H]1C(=O)N[C@@H](CCC(=O)O)C(=O)N[C@@H](CCC(=O)O)C(=O)N[C@@H](C)C(=O)N[C@@H](CC1CCCCC1)C(=O)N[C@H](CCC(=O)O)C(=O)O` [Example 4, Suc-Phe(pNHSO3 H)-Glu-Pro-Ile-Pro-Glu-Glu-Ala-Cha-D-Glu-OH] has an IC50 [1] of 13 µM and an IC50 [2] of less than 25 µM.
Work on “Suc-Tyr-Glu-Pro-Ile-Pro-Glu-Glu-Phe(pNHSO3 H)-D-Glu-OH [Example 3]” yielded an IC50 [1] of 0.12 µM.
`CC[C@H](C)[C@H](NC(=O)[C@@H]1CCCN1C(=O)[C@H](CCC(=O)O)NC(=O)[C@H](Cc1ccc(OS(=O)(=O)O)cc1)NC(=O)CCC(=O)O)C(=O)N1CCC[C@H]1C(=O)N[C@@H](CCC(=O)O)C(=O)N[C@@H](CCC(=O)O)C(=O)N[C@@H](C)C(=O)N[C@@H](Cc1ccc(NS(=O)(=O)O)cc1)C(=O)N[C@H](CCC(=O)O)C(=O)O` [Example 2, Suc-TVr(SO3 H)-Glu-Pro-Ile-Pro-Glu-Glu-Ala-Phe(pNHSO3 H)-D-Glu-OH] was tested, and the IC50 [1] was 15 µM and the IC50 [2] was less than 25 µM.
